In US9040715B2 (priority 2008, dated 2015):
In brackets after ≈: the same amount, converted by molar mass.

How the values were obtained:
Candida albicans (CAF-2) = assay: Anti-fungal/anti-yeast activity: MIC50 (broth microdilution) and MFC; type: cell-based; details: for MIC: read-out: MIC-50
Procedure: (§1) Fluconazole, an ergosterol inhibitor, and the beta-1,3-glucan inhibitor micafungin served as controls (See Tables 1-8).
(§2) The minimum inhibitory concentrations resulting in 50% growth inhibition (MIC50) of […] Candida species (C. albicans, C. tropicalis and C. glabrata, C. lusitaniae, C. parapsilosis, and C. apicola) as well as Aspergillus fumigatus to a set of novel synthetic compounds was determined in accordance with the guidelines in CLSI document M27-A2 (Clinical and Laboratory Standards Institute; Wayne, Pa.). The total volume of cells and drug was 100 μL per microtiter well, and each drug was diluted in RPMI to achieve final concentrations of 0.2-100 μg/ml. Uninoculated cultures were used as a reference standard. Stock inoculum suspensions were prepared from 24 hour cultures on YPD (yeast extract/peptone/dextrose) media at 30° C. For MIC determinations, an inoculum of 1.0×10^3 cells of Candidia and 2.0×10^3 cells of Aspergillus per well were used, and cells in diluted drugs were prepared in RPMI-1640 medium. MICs were determined both visually and spectrophotometrically at 24 hours and 48 h at 550 nm using a micro plate reader. The MIC50 endpoint was measured as the lowest drug concentration resulting in a reduction of growth of 50% or more compared with growth of the control.
(§3) The minimum fungicidal concentrations (MFCs) were determined for each drug-isolate-medium combination as follows. After 48 hours of incubation, 100 μL of each drug-isolate-medium combination (2 plates) was subcultured onto YPD plates (100 μL of solution was spread over the YPD plate). […] The plates were then incubated at 30° C. for 48 hours.
(§4) The in vitro fungicidal activities (MFCs) were determined for each drug-isolate-medium combination as follows. After 48 hours of incubation, 10 μL each drug-isolate-medium combination was spotted onto YPD plates (10 μL of each well is spotted sequentially with positive and negative control wells). […] The plates were then incubated at 30° C. for 48 hours.

Candida apicola = assay: as above; type: cell-based; details: for Activity (fungicidal/fungistatic) / MIC-50 / Ratio MFC/MIC: Candida apicola; for MFC: Starmerella apicola
Procedure: as §1, §2, §3, §4

Candida glabrata = assay: as above; type: cell-based; details: for Activity (fungicidal/fungistatic) / Ratio MFC/MIC: Candida glabrata; for MFC / MIC: Nakaseomyces glabratus; for MIC: read-out: MIC-50
Procedure: as §1, §2, §3, §4

Candida lusitaniae = assay: as above; type: cell-based; details: for Activity (fungicidal/fungistatic) / Ratio MFC/MIC: Candida lusitaniae; for MFC / MIC: Clavispora lusitaniae; for MIC: read-out: MIC-50
Procedure: as §1, §2, §3, §4

Candida tropicalis = assay: as above; type: cell-based; details: for MIC: read-out: MIC-50
Procedure: as §1, §2, §3, §4

Candidia parapsilosis = assay: as above; type: cell-based; details: for Activity (fungicidal/fungistatic) / Ratio MFC/MIC: Candidia parapsilosis; for MIC: read-out: MIC-50
Procedure: as §1, §2, §3, §4

[1] = tested on: Saccharomyces cerevisiae (YPH501); assay: as above; type: cell-based; details: for MFC / MIC: Saccharomyces cerevisiae; for Activity (fungicidal/fungistatic) / Ratio MFC/MIC: Saccharomyces cerevisiae (YPH501); for MIC: read-out: MIC-50
Huh7 cells = assay: Neutral red uptake assay (cytotoxicity); type: cell-based, human
Excerpt: The neutral red uptake assay is a cytotoxicity test that is based on the ability of viable cells to incorporate and bind the supra-vital dye neutral red in the lysosomes. This weakly cationic dye penetrates cell membranes by non-ionic passive diffusion and concentrates in the lysosomes, where it binds by electrostatic hydrophobic bonds to anionic and phosphate groups of the lysosomal matrix. The dye is then extracted from the viable cells using an acidified ethanol solution, and the absorbance of the solubilized dye is read. When the cell dies or the pH gradient is reduced, the dye is not retained and consequently, the amount of retained dye is proportional to the number of viable cells. Most primary cells and cell lines can be used for this method. The HepG2 and Huh7, two human hepatoma cell lines, were used for this study. The cells were seeded in 96-well tissue culture plates and treated for 48 hours with the compounds. The plates were then incubated for 2 hours with a medium containing neutral red. The cells were subsequently washed, the dye was extracted in each well, and the absorbance was read using a spectrophotometer (FIG. 3 and Table 11).

Huh7 or HepG2 cell line = assay: MTT assay (cytotoxicity); type: cell-based, human; details: 24 hours and 48 hours
Procedure: The MTT assay is a colorimetric assay that measures the reduction of yellow 3-(4,5-dimethylhiazol-2-yl)-2,5-diphenyl tetrazolium bromide (MTT) by mitochondrial succinate dehydrogenase. The MTT enters the cells and passes into the mitochondria where it is reduced to an insoluble, dark purple, formazan product. The cells are then solubilized with an organic solvent (e.g., isopropanol) and the released, solubilized formazan reagent is measured spectrophotometrically. Since reduction of MTT can only occur in metabolically active cells, the level of activity is a measure of the viability of the cells.
Cells of the Huh7 or HepG2 cell line were seeded in a 96 well plate. The plate was incubated overnight at 37° C. in a humidified incubator, 5% CO2. The test compounds were added to the plate. Different concentrations of drug were tested in triplicate along with a negative control. The final volume was adjusted to 100 μl per well. The plate was incubated overnight at 37° C. in a humidified incubator, 5% CO2. After 24 hours and 48 hours, MTT reagent (5 mg/ml, 10 μl/100 μl per well of the 96 well plate) was added and incubated at 37° C. for 3 hours. After 3 hours, 100 μl of the DMSO solution was added to each well and the plate was rocked at room temperature for 1 hour. The plate was then read on a plate reader at […].

| Structure (SMILES) | Activity (fungicidal/fungistatic) (Candida albicans (CAF-2)) | MFC (Candida albicans (CAF-2)) [µg/mL] | Ratio MFC/MIC (Candida albicans (CAF-2)) | MIC (Candida albicans (CAF-2)) [µg/mL] | Activity (fungicidal/fungistatic) (Candida apicola) | MIC-50 (Candida apicola) [µg/mL] | Ratio MFC/MIC (Candida apicola) | MFC (Candida apicola) [µg/mL] | Activity (fungicidal/fungistatic) (Candida glabrata) | Ratio MFC/MIC (Candida glabrata) | MFC (Candida glabrata) [µg/mL] | MIC (Candida glabrata) [µg/mL] | Activity (fungicidal/fungistatic) (Candida lusitaniae) | Ratio MFC/MIC (Candida lusitaniae) | MFC (Candida lusitaniae) [µg/mL] | MIC (Candida lusitaniae) [µg/mL] | Activity (fungicidal/fungistatic) (Candida tropicalis) | MFC (Candida tropicalis) [µg/mL] | Ratio MFC/MIC (Candida tropicalis) | MIC (Candida tropicalis) [µg/mL] | also measured |
| --- | --- | --- | --- | --- | --- | --- | --- | --- | --- | --- | --- | --- | --- | --- | --- | --- | --- | --- | --- | --- | --- |
| O=c1c2ccccc2sn1Cc1nnc(Cc2ccccc2)o1 [Compound I-4] | fungicidal (An MFC/MIC ratio of less than four indicates that the compound is fungicidal) | 6.4 | 1 | 6.4 | fungicidal (An MFC/MIC ratio of less than four indicates that the compound is fungicidal) | 12.5 | 1 | 12.5 | fungicidal (An MFC/MIC ratio of less than four indicates that the compound is fungicidal) | 1 | 12.5 | 12.5 | fungicidal (An MFC/MIC ratio of less than four indicates that the compound is fungicidal) | 1 | 12.5 | 12.5 | fungicidal (An MFC/MIC ratio of less than four indicates that the compound is fungicidal) | 12.5 | 1 | 12.5 | MFC (Candidia parapsilosis): 12.5 µg/mL; Activity (fungicidal/fungistatic) (Candidia parapsilosis): fungicidal (An MFC/MIC ratio of less than four indicates that the compound is fungicidal); Ratio MFC/MIC (Candidia parapsilosis): 1; MIC (Candidia parapsilosis): 12.5 µg/mL; MFC [1]: 6 µg/mL (≈ 18.6 µM); Activity (fungicidal/fungistatic) [1]: fungicidal (An MFC/MIC ratio of less than four indicates that the compound is fungicidal); Ratio MFC/MIC [1]: 1; MIC [1]: 6 µg/mL (≈ 18.6 µM); Percentage Viability (Huh7 cells; 3.3 μg/mL (approx 1X MIC)): >100%; Percentage Viability (Huh7 cells; 10 μg/mL (approx 3X MIC)): >100%; Percentage Viability (Huh7 cells; 33 μg/mL (approx 10X MIC)): >100%; Percentage Viability (Huh7 cells; 100 μg/mL (approx 30X MIC)): 75%; Toxicity to mammalian cell lines (MTT assay) (Huh7 or HepG2 cell line): minimally toxic |
| COc1ccc(CC(=O)NNC(=O)Cn2sc3ccccc3c2=O)cc1 [Compound I-6] | fungicidal (An MFC/MIC ratio of less than four indicates that the compound is fungicidal) | 12.5 | 1 | 12.5 | fungicidal (An MFC/MIC ratio of less than four indicates that the compound is fungicidal) | 12.5 | 1 | 12.5 | fungicidal (An MFC/MIC ratio of less than four indicates that the compound is fungicidal) | 1 | 12.5 | 12.5 | fungicidal (An MFC/MIC ratio of less than four indicates that the compound is fungicidal) | 1 | 12.5 | 12.5 | fungicidal (An MFC/MIC ratio of less than four indicates that the compound is fungicidal) | 12.5 | 1 | 12.5 | MFC (Candidia parapsilosis): 12.5 µg/mL; Activity (fungicidal/fungistatic) (Candidia parapsilosis): fungicidal (An MFC/MIC ratio of less than four indicates that the compound is fungicidal); Ratio MFC/MIC (Candidia parapsilosis): 1; MIC (Candidia parapsilosis): 12.5 µg/mL; MFC [1]: 12.5 µg/mL (≈ 33.7 µM); Activity (fungicidal/fungistatic) [1]: fungicidal (An MFC/MIC ratio of less than four indicates that the compound is fungicidal); Ratio MFC/MIC [1]: 1; MIC [1]: 12.5 µg/mL (≈ 33.7 µM); Percentage Viability (Huh7 cells; 3.3 μg/mL (approx 1X MIC)): >100%; Percentage Viability (Huh7 cells; 10 μg/mL (approx 3X MIC)): >100%; Percentage Viability (Huh7 cells; 33 μg/mL (approx 10X MIC)): >100%; Percentage Viability (Huh7 cells; 100 μg/mL (approx 30X MIC)): 67%; Toxicity to mammalian cell lines (MTT assay) (Huh7 or HepG2 cell line): minimally toxic |
| CC(=O)NNC(=O)Cn1sc2ccccc2c1=O [Compound I-7] | fungicidal (An MFC/MIC ratio of less than four indicates that the compound is fungicidal) | 6.4 | 1 | 6.4 | fungicidal (An MFC/MIC ratio of less than four indicates that the compound is fungicidal) | 12.5 | 1 | 12.5 | fungicidal (An MFC/MIC ratio of less than four indicates that the compound is fungicidal) | 2 | 50 | 25 | fungicidal (An MFC/MIC ratio of less than four indicates that the compound is fungicidal) | 1 | 12.5 | 12.5 | fungicidal (An MFC/MIC ratio of less than four indicates that the compound is fungicidal) | 12.5 | 1 | 12.5 | MFC (Candidia parapsilosis): 12.5 µg/mL; Activity (fungicidal/fungistatic) (Candidia parapsilosis): fungicidal (An MFC/MIC ratio of less than four indicates that the compound is fungicidal); Ratio MFC/MIC (Candidia parapsilosis): 1; MIC (Candidia parapsilosis): 12.5 µg/mL; MFC [1]: 12.5 µg/mL (≈ 47.1 µM); Activity (fungicidal/fungistatic) [1]: fungicidal (An MFC/MIC ratio of less than four indicates that the compound is fungicidal); Ratio MFC/MIC [1]: 1; MIC [1]: 12.5 µg/mL (≈ 47.1 µM); Percentage Viability (Huh7 cells; 3.3 μg/mL (approx 1X MIC)): >100%; Percentage Viability (Huh7 cells; 10 μg/mL (approx 3X MIC)): >100%; Percentage Viability (Huh7 cells; 33 μg/mL (approx 10X MIC)): >100%; Percentage Viability (Huh7 cells; 100 μg/mL (approx 30X MIC)): >100%; Toxicity to mammalian cell lines (MTT assay) (Huh7 or HepG2 cell line): minimally toxic |
